Patent US20250195547A1, “COMPOSITIONS AND METHODS OF TREATMENT FOR CONGENITAL DIARRHEAL DISORDER” (VANDERBILT UNIVERSITY, priority 2022, published 2025)
“Also recorded” adds a separate entry of the source.

Experiments:
Myo5bΔINT mice = test: Daily LPAR agonist treatment of tamoxifen-induced Myo5bΔINT mice (MVID model), intestinal histology and immunostaining; type: in vivo, mouse; conditions: for Hmgcs2 protein expression in jejunal epithelial cells / apical localization of transporters NHE3 and SGLT1: immunostaining; for Hmgcs2 protein expression in jejunal epithelial cells: once daily ip for 4 days; for tuft cell differentiation (tuft cell population) in Myo5bΔINT intestine: once a day for 4 days, LPA 3 mg/kg, Compound-1 1 mg/kg, UCM-05194 10 mg/kg, GRI977143 3 mg/kg; for apical localization of transporters NHE3 and SGLT1: small intestine, daily treatment
Experimental: All animal studies were performed with approval from the Institutional Animal Care and Use Committee of Vanderbilt University Medical Center (M2000104). At the 8-10 week of age, Myo5bΔINT mice and littermate controls (VilCre^ERT2; Myo5b^+/flox and Myo5b^flox/flox) received a single dose of tamoxifen (100 mg/kg) by intraperitoneal (IP) injection (day 0) (Weis et al.). […] Compound-1 was dissolved in PBS, and UCM-05194 was dissolved in Captisol solution. Body weight changes and diarrhea symptoms were investigated daily. On day 4, mice were euthanized and the duodenum (0-8 cm from the pyloric ring), jejunum (8 cm following the duodenum), ileum (distal 8 cm from the ileocecal junction), and colon were collected for pathological assessment as previously reported (Kaji et al.).
Immunofluorescence staining and imaging were performed as previously reported (Kaji, JCI Insight). Four-μm-thin sections were deparaffinized and rehydrated before performing antigen retrieval using 10 mM sodium citrate buffer, contained 0.05% Tween 20 (pH 6), in a pressure cooker for 15 minutes. After cooling down on ice, slides were rinsed in PBS and blocked with protein block serum-free (Dako) for 1 hour at r/t or overnight at 4° C. The primary antibodies against NHE3 (1:200), SGLT1 (0.5 μg/ml) (Kaji et al., 2020), DCLK1 (AF647-conjugated, 1:2000), KRT19 (1:250), CD3, HMGCS2 (1:50), or Actg1 (1:100) were diluted in Dako diluent in background reducing compound (S3022) and incubated on sections overnight at 4° C. After rinsing in 0.1 M PBS, the slides were incubated with the corresponding secondary antibodies conjugated with fluorescence (Jackson Laboratory) for 1 hour. Slides were rinsed in 0.1 M PBS and counterstained with Hoechst 33342 (4 mM, Thermo Fisher Scientific, Waltham, MA) in PBS. The stained slides were cover-slipped with ProLong Gold Antifade Reagent (P36934, Thermo Fisher). Whole slide images were scanned by a Versa imager 200 with a 20× objective (Leica Biosystems, Buffalo Grove, IL) in the Vanderbilt Digital Histology Shared Resource (DHSR). Some immunofluorescence images were taken by using a Zeiss Axio Imager M2 with ApoTome (Carl Zeiss Microscopy, LLC, White Plains NY).
The DIA code to quantify the tuft cell populations was developed at the DHSR on Python platform as described previously (Kaji 2021).

[1] = system: MYO5B(P663L) pig enteroids; test: Tuft cell differentiation in pig MVID model enteroids; type: cell-based; conditions: 100 nM daily in ODM, 5 days, vs vehicle (PBS)
Experimental: Pig enteroids were expanded in Matrigel (Corning) immersed in IntestiCult Organoid Growth Medium (Human, OGM, Stem Cell Technology). Organoid growth was assessed in 96-well plate and continuously imaged whole wells using a JuLi™ Stage (NanoEn Tek Inc., Waltham, MA). Organoid perimeter was measured by using FIJI, and organoid forming rate was calculated as sphere numbers per plated cell numbers 7 days after the passaging. N=7-9 wells from each genotype. In a different set of culture, tuft cells were differentiated in Organoid Differentiation Medium (ODM, Stem Cell Technology) for 5 days, following after 2 days culture in OGM after passaging. MYO5B(P663L) enteroids were incubated with 100 nM Compound-1 or vehicle (PBS) in ODM.
Organoids were fixed with 10% NBF for 30 min in Matrigel domes, rinsed with cold PBS containing 0.1% FBS and centrifuged to remove Matrigel. Fixed organoids were blocked with 5% normal donkey serum in PBS containing 0.3% Triton X-100 for 2 hours and incubated with the pGirdin (1:100) or POU2F3 (1:200) antibody diluted with the blocking solution for 2 days at 4° C. After rinsing in PBS with Triton X-100, donkey anti-rabbit Cy3 antibody (2.5 μg/ml), Alexa Fluor 488 phalloidin (1:400, A12379, Thermo Fisher), and Hoechst 33342 (2 mM) were applied for 2 hr. […]

Myo5bΔINT enteroids = test: Bulk transcriptional analysis (RNA-seq) in MYO5B deficient mouse enteroids; type: cell-based; conditions: 100 nM
Experimental: Enteroids were generated from jejunal crypts of adult VilCre^ERT2; Myo5b^flox/flox and VilCre^ERT2; Myo5b^flox/G519R mice (Burman & Momoh CMGH) without tamoxifen treatment and passaged twice with mechanical breakdown. One day after the second passage, 1 μM 4-OH-tamoxifen (SML1666, Sigma) was added into the IntestiCult Organoid Growth Medium (Mouse, Stem Cell Technology) and incubated for 24 hours to induce Cre recombinase. After the incubation with 4-OH-tamoxifen (induced KO or G519R) or the vehicle, 100% ethanol (Control), the medium was replaced with the modified Minigut medium (Mahe et al., 2013) containing 5% Noggin conditioned medium and 5% R-spondin conditioned medium (Vanderbilt Organoid Core) to withdraw Wnt and EGF for enhancing cell differentiation (Kaji JCI Insight). Some iKO enteroids were incubated with 100 nM Compound-1 for 2 days in differentiation conditions.
Following differentiation, enteroids were placed in Organoid Harvesting Solution (3700-100-01; Cultrex) for 1 hr at 4° C. Enteroids were washed with PBS and centrifuged. Enteroid pellets were immersed in TRIzol reagent (15596026; Invitrogen) supplemented with glycogen (G1767; Sigma Aldrich) and stored at −20° C. Total RNA was extracted from enteroids following the manufacturer's instructions. RNA-sequencing with 4 samples per group and differential expressing gene analysis were performed in Novogene.

[2] = Plasma level after bolus intraperitoneal injection in wild type adult mice; type: in vivo, mouse
Solubility / stability = type: physicochemical; conditions: as a sodium salt
human LPAR5 = human LPAR5 (Homo sapiens, UniProt Q9H1C0); conditions: cited from earlier work
human LPAR3 = molecular target: T1, human LPAR3 (Homo sapiens, UniProt Q9UBY5); conditions: cited from earlier work
T1 sequence (Q9UBY5 1-353): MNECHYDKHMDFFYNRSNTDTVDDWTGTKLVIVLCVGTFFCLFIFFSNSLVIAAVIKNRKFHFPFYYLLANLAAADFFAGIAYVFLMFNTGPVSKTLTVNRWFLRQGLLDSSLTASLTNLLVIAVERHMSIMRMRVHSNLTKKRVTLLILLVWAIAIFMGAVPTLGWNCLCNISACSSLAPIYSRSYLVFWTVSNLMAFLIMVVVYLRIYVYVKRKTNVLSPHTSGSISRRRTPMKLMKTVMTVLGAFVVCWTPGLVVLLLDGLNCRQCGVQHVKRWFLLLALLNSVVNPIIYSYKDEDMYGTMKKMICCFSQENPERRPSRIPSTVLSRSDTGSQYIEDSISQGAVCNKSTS

[3] = natural LPA; background statement; cited from earlier work

Sequence of human LPAR5 (Q9H1C0 whole entry): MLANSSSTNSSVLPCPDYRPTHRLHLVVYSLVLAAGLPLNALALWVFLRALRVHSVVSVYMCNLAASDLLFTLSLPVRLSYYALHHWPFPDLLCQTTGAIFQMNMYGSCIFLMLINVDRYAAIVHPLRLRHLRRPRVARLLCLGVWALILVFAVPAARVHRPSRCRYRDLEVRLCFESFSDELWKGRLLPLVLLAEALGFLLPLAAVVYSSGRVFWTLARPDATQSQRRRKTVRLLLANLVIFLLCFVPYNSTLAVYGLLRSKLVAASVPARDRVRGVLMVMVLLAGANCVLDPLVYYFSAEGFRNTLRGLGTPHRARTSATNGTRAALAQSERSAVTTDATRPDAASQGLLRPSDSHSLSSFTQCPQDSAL

CCCCCCCCCCCCCCCCOC(CCP([O-])(O)=S)COC.[Na+] (stereo not shown) [Compound-1]
Intestinal villus/crypt ratio (Myo5bΔINT mice; Compound-1 1 mg/kg daily, intraperitoneal, 4 days, vs vehicle): significantly improved | increase of villus/crypt ratio in the small intestine (Myo5bΔINT mice; daily Compound-1 treatment): 150% | effect of subcutaneous tablet insertion (continuous delivery) (Myo5bΔINT mice; high dose 2 mg/mouse per tablet): no consistent effect | Hmgcs2 protein expression in jejunal epithelial cells (Myo5bΔINT mice): remarkably upregulated | effect of subcutaneous tablet insertion (continuous delivery) (Myo5bΔINT mice; low dose 0.2 mg/mouse per tablet): no consistent effect | tuft cell differentiation (tuft cell population) in Myo5bΔINT intestine (Myo5bΔINT mice): reversed; also recorded: significantly increased | apical localization of transporters NHE3 and SGLT1 (Myo5bΔINT mice): partially recovered; also recorded: partially reversed to normal | body weight loss (Myo5bΔINT mice; within 4 days, similar to vehicle-treated group): approximately 14% | tuft cell numbers in MYO5B(P663L) enteroids [1]: significantly increased | Nox1 expression decreased by MYO5B loss (Myo5bΔINT enteroids; 2 days): reversed | inflammation- and infection-related genes (Nlrp1b, Ldhb, Hspg2, Trim30) increased by MYO5B loss (Myo5bΔINT enteroids; 2 days during differentiation): significantly reversed | Hmgcs2 expression in enteroids with and without Compound-1 (Myo5bΔINT enteroids; 2 days, control vs MYO5B deficient enteroids): comparable | Compound in plasma ([2]; 1 hour after bolus ip injection 10 mg/kg): detected | plasma concentration (disappeared) ([2]; within 6 hours after bolus ip injection 10 mg/kg): < 10 ng/mL | solubility in water (Solubility / stability): highly soluble | EC50 (human LPAR5): 0.26 nM | effect on human LPAR3 (human LPAR3): agonistic effect

CCCCCCCC/C=C\CCCCCCCC(=O)OCC(O)COP(=O)(O)O (stereo not shown) [LPA, 18:1 1-oleoyl-Lyso PA, reference compound]
fatty acid oxidation or lipogenesis pathways (transcription) (Myo5bΔINT mice; RNA-seq of jejunal epithelial cells, in vivo LPA (18:1)): did not reverse | transcription of Hmgcs2 in jejunal epithelial cells (Myo5bΔINT mice; RNA-seq, vs vehicle-treated Myo5bΔINT or healthy littermate mice): significantly upregulated | Hmgcs2 protein expression in jejunal epithelial cells (Myo5bΔINT mice): further increased | tuft cell differentiation (tuft cell population) in Myo5bΔINT intestine (Myo5bΔINT mice): reversed | apical localization of transporters NHE3 and SGLT1 (Myo5bΔINT mice): similarly improved | solubility and stability [3]: poor

O=C(CCCc1ccccc1)O[C@H](CBr)COP(=O)(O)O [UCM-05194, reference compound]
intestinal histology (Myo5bΔINT mice; once a day for 4 days after tamoxifen): did not significantly alter | tuft cell differentiation (tuft cell population) in Myo5bΔINT intestine (Myo5bΔINT mice): no significant effect
